Measurements reported in patent US7981930B2, “Compositions and kits for treating influenza” (Adamas Pharmaceuticals, Inc., priority 2007, dated 2011).
In brackets after ≈: the same amount, converted by molar mass. Like-named read-outs stand apart in the source and are kept apart here.

Columns and labels:
[1] = system: Influenza A/Victoria/3/75 (H3N2) virus; assay: In vitro kinetic assay of mono and combination therapy in MDCK and SIAT-1 cells (viral load by CCID50, CPE scoring); type: cell-based
[2] = system: wild type A/Albany (H3N2) strain; assay: Hollow fiber system, MDCK cells, continuous infusion 168 hours, viral titer and sequencing; type: cell-based, Influenza A virus (H3N2); conditions: for effect on viral titer: drug alone at low dose (amantadine 0.1 μg/mL; ribavirin 0.5 μg/mL); for concentrations at which the triple combination demonstrated synergism: hollow fiber, steady-state infusion
[3] = system: A/Sydney/05/97 H3N2 virus; type: cell-based; conditions: for increase in sensitivity of the virus to the drug in triple combination compared to monotherapy: drug used with the two other drugs vs. monotherapy; for concentration range at which synergy was seen: drugs in combination, MDCK 96-well
A/Albany/1/98 (H3N2) = assay: microbe, parasite or virus in culture; type: cell-based; conditions: for EC50: Influenza A virus, H3N2, MDCK; for EC25, Target serum C: molar equivalent of in vitro EC25; for EC75, Target serum C: molar equivalent of in vitro EC75; for EC25, In vitro C / EC75, In vitro C: MDCK cells in flasks, virus reduction at 72 hrs
[4] = system: A/Victoria/3/75 (H3N2) virus; assay: Mouse model of influenza infection, treatment started before infection (Example 3A); type: in vivo, mice
[5] = system: A/Victoria/3/75 (H3N2) virus; assay: Mouse model of influenza infection, treatment initiated 24 or 48 hours after infection (Example 3B); type: in vivo, mice; conditions: for weight loss: day 9
[6] = drug alone at high dose (amantadine 1.0 μg/mL; ribavirin 5 μg/mL), 48 hours
[7] = molar equivalent of in vitro EC50, read-out: EC50, Target serum C
[8] = monotherapy, concentration of drug that reduces 50% of the virus at 72 hrs, read-out: EC50, In vitro C
[9] = amantadine 3 mg/ml, oseltamivir 10 or 30 mg/kg/day, ribavirin 7 or 21 mg/kg/day, monotherapy
[10] = treatment initiated 48 hours after infection

With `NC12CC3CC(CC(C3)C1)C2` [Amantadine, 1-amino-adamantane] the “time post infection until substantial cell death was seen” value [1] was 144 h, the reduction in titer [2, 6] was 2-3 log and the “effect on viral titer” value [2] was “negligible effect”. The “concentrations at which the triple combination demonstrated synergism” value (from here on “concentrations”) [2] was 0.1 to 1 µg/mL, the “reduction in viral load” value ([3]; amantadine monotherapy at 1 μg/ml) was ~60% and the “increase in sensitivity of the virus to the drug in triple combination compared to monotherapy” value (“increase in sensitivity of the virus” for short) [3] was 10 fold. For the same compound, the “concentration range at which synergy was seen” value (“concentration range” for short) [3] was 0.1 to 1 µg/mL, the EC50 (A/Albany/1/98 (H3N2); [7]) was 480 nM and the EC50 (A/Albany/1/98 (H3N2); [8]) was 91 ng/mL. For the same compound, the “EC25, Target serum C” value (A/Albany/1/98 (H3N2)) was 288 nM, the “EC75, Target serum C” value (A/Albany/1/98 (H3N2)) was 815 nM and the “EC25, In vitro C” value (A/Albany/1/98 (H3N2); monotherapy) was 54 ng/mL (≈ 357 nM). For the same compound, the “EC75, In vitro C” value (A/Albany/1/98 (H3N2); monotherapy) was 153 ng/mL (≈ 1010 nM), the survival rate ([4]; amantadine 3 mg/ml by Alzet pump (4 mg/kg/day), 3 survivors out of 11) was 27% and the “weight loss during the infection” value [4, 9] was “more substantial”. The “protection (survival)” value ([4]; amantadine 10 mg/ml by Alzet pump (13 mg/kg/day)) was 92%, the “weight loss during the infection” value ([4]; amantadine 10 mg/ml monotherapy) was “minimal” and the “mice protected, UK/EU mortality criteria (death=20% weight loss)” value ([4]; mouse, in vivo) was 10%. The times to death ([4]; mouse, in vivo) was “significantly increased”, the “mortality (UK/EU mortality criteria)” value ([5]; mouse, in vivo) was 100% and the weight loss [5, 10] was ~35%.
With `CCOC(=O)C1=C[C@@H](OC(CC)CC)[C@H](NC(C)=O)[C@@H](N)C1` [Oseltamivir] the “concentrations” value [2] was 0.001 to 0.01 µg/mL, the reduction in titer ([2]; oseltamivir alone, both doses (1 and 10 ng/mL)) was ~1 log and the “increase in sensitivity of the virus” value [3] was “over 100 fold”. The “concentration range” value [3] was 0.001 to 0.032 µg/mL, the “reduction in viral load” value ([3]; oseltamivir monotherapy at 0.1 μg/ml) was ~50% and the EC50 (A/Albany/1/98 (H3N2); 72 h, read-out: EC50, In vitro C) was 0.05 ng/mL. The EC50 (A/Albany/1/98 (H3N2); read-out: EC50, Target serum C) was 0.16 nM, the “EC25, Target serum C” value (A/Albany/1/98 (H3N2)) was 0.080 nM and the “EC75, Target serum C” value (A/Albany/1/98 (H3N2)) was 0.240 nM. For the same compound, the “EC25, In vitro C” value (A/Albany/1/98 (H3N2); monotherapy) was 0.025 ng/mL (≈ 0.08 nM), the “EC75, In vitro C” value (A/Albany/1/98 (H3N2); monotherapy) was 0.075 ng/mL (≈ 0.24 nM) and the “weight loss during the infection” value [4, 9] was “more substantial”. The “mice protected, UK/EU mortality criteria (death=20% weight loss)” value ([4]; oseltamivir 10 mg/kg/day, amantadine 3 mg/ml, ribavirin 7 mg/kg/day, as monotherapy or as triple combination at the same concentrations) was 40%, the survival benefit ([4]; oseltamivir monotherapy at 10 and 30 mg/kg/day oral gavage) was 92-100% and the “mortality (UK/EU mortality criteria)” value ([5]; treatment initiated 24 hours after infection, by day 9, amantadine 28, oseltamivir 10 mg/kg/day) was 100%. It also gave a weight loss [5, 10] of ~35%.
In the case of `NC(=O)c1ncn([C@@H]2O[C@H](CO)[C@@H](O)[C@H]2O)n1` [Ribavirin], the reduction in titer [2, 6] is reported as ~3 log, the “effect on viral titer” value [2] is reported as “negligible effect” and the “concentrations” value [2] is reported as 0.5 to 5 µg/mL. The “increase in sensitivity of the virus” value [3] was 100 fold, the “concentration range” value [3] was 0.032 to 1.0 µg/mL and the “reduction in viral load” value ([3]; ribavirin monotherapy at 1 μg/ml) was “approximately 10%”. The “reduction in viral load” value ([3]; ribavirin monotherapy at 3.2 μg/ml) was ~95%, the EC50 (A/Albany/1/98 (H3N2); [7]) was 1030 nM and the EC50 (A/Albany/1/98 (H3N2); [8]) was 420 ng/mL. For the same compound, the “EC25, Target serum C” value (A/Albany/1/98 (H3N2)) was 760 nM, the “EC75, Target serum C” value (A/Albany/1/98 (H3N2)) was 1500 nM and the “EC25, In vitro C” value (A/Albany/1/98 (H3N2); monotherapy) was 310 ng/mL (≈ 1270 nM). The “EC75, In vitro C” value (A/Albany/1/98 (H3N2); monotherapy) was 615 ng/mL (≈ 2520 nM), the “weight loss during the infection” value [4, 9] was “more substantial” and the times to death ([4]; mouse, in vivo) was “significantly increased”. The weight loss [5, 10] was “about 26%” and the “weight as percent of original weight” value ([5]; treatment initiated 48 hours after infection, day 13) was “approximately 80%”.
